Data set [1] has as its target T1, recombinant human 5-HT6 receptor (Homo sapiens, UniProt P50406).
T1 construct: expressed in transfected cells; host or cells: HEK293
Kind of data set: Radioligand binding, competition for [3H]LSD in HEK293 cell membranes. Conditions: [3H]LSD displacement, pH 7.4, 37° C., 75 min, read-out: pKi for 5-HT6 (converted). On the procedure:
(§1) The binding activity of compounds of this invention in vitro was determined as follows. Duplicate determinations of 5-HT6 ligand affinity were made by competing for binding of [^3H]LSD in cell membranes derived from HEK293 cells stably expressing recombinant human 5-HT6 receptor. Duplicate determinations of 5-HT2A ligand affinity were made by competing for binding of [^3H]Ketanserin (3-(2-(4-(4-fluorobenzoyl)piperidinol)ethyl)-2,4(1H,3H)-quinazolinedione) in cell membranes derived from CHO-K1 cells stably expressing recombinant human 5-HT2A receptor. Membranes were prepared from HEK 293 cell lines by the method described by Monsma et al., Molecular Pharmacology, Vol. 43 pp. 320-327 (1993), and from CHO-K1 cell lines as described by Bonhaus et al., Br J Pharmacol. June; 115(4):622-8 (1995).
(§2) For estimation of affinity at the 5-HT6 receptor, all determinations were made in assay buffer containing 50 mM Tris-HCl, 10 mM MgSO4, 0.5 mM EDTA, 1 mM ascorbic acid, pH 7.4 at 37° C., in a 250 microliter reaction volume. […]
(§3) Assay tubes containing [^3H] […] LSD or [^3H]Ketanserin were determined as radioactive counts per minute using Packard TopCount.
(§4) Displacement of [^3H]LSD or [^3H]Ketanserin from the binding sites was quantified by fitting concentration-binding data to a 4-parameter logistic equation: […]

Data set [2] addresses T2, recombinant human 5-HT2A receptor (Homo sapiens, UniProt P28223).
T2 construct: expressed in transfected cells; host or cells: CHO-K1
Kind of data set: Radioligand binding, competition for [3H]Ketanserin in CHO-K1 cell membranes. Conditions: [3H]Ketanserin displacement, pH 7.4, 32° C., 60 min, read-out: pKi for 5-HT2A (converted). On the procedure: as §1, §2, §3, §4

SMILES strings stand for the structures. Structures can show the parent of a compound that is named as a salt.

T2 sequence (P28223 whole entry): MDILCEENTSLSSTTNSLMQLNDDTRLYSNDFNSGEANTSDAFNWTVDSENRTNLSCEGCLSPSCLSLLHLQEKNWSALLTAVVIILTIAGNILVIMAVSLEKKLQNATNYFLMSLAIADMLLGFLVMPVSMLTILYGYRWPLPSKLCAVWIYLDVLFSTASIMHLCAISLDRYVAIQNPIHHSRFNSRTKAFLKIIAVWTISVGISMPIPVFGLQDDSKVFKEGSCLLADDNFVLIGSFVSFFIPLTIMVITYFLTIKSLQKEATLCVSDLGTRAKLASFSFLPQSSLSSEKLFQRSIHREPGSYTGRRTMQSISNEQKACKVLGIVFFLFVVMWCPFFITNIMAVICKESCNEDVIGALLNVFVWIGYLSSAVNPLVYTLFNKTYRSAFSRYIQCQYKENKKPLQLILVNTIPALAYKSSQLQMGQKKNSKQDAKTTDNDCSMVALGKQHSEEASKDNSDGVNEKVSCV
T1 sequence (P50406 whole entry): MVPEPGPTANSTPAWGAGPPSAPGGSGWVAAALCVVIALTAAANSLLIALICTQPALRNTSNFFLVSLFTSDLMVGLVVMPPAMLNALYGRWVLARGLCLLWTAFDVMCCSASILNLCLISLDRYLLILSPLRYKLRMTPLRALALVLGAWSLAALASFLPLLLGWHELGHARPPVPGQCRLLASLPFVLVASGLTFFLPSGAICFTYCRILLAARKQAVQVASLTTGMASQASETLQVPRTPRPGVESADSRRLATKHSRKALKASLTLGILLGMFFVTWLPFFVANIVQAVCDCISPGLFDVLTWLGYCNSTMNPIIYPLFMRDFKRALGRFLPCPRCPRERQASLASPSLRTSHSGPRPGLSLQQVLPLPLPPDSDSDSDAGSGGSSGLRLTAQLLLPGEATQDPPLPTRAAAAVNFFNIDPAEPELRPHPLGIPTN

Consider `CNCC1CCOc2cc(S(=O)(=O)c3ccccc3)ccc21` (stereo not drawn) (as salt: HCl), for which the melting point – broadly, the temperature, or range, at which the solid turns liquid – was 158.1 to 159.8 °C.

Consider `NCC1CCOc2cc(S(=O)(=O)c3ccccc3)ccc21` (stereo not drawn) [C-(7-Benzenesulfonyl-chroman-4-yl)-methylamine], for which the Ki is around 0.724 nM in data set [1] and around 20.4 nM in data set [2].

Source of the values: patent publication US7759389B2, “Chroman derivatives and uses thereof” (Roche Palo Alto LLC, priority 2004, dated 2010).
